{"source": "patent US7705016B2", "about": "“Regulation of food intake by modulation of long-chain fatty acyl-CoA levels in the hypothalamus” (Albert Einstein College of Medicine of Yeshiva University, priority 2003, dated 2010)", "key": {"rats": {"test_system": "rats", "details": "rats fed standard chow, prolonged (16 h) fasting; cited from earlier work"}, "hypothalamic NPY mRNA": {"test_system": "hypothalamic NPY mRNA", "experiment": "Hypothalamic NPY expression after ICV OA (northern blot)", "format": "in vivo, rat", "details": "30 nmol ICV bolus", "method": "NPY Expression Studies. For analysis of NPY expression, we studied two groups of rats, HF55 and HF140. After three days on the respective diet regimen, ICV Vehicle (10% HPB in aCSF) or ICV OA (30 nmol) was injected as a bolus into the third cerebral ventricle one hour before the start of the dark cycle. Food was withdrawn and hypothalami were harvested 16 hrs following injection. Northern Blot Analysis. Total RNA was isolated from hypothalami and liver with Trizol (Invitrogen Corp., California, USA). NPY, Glc-6-Pase or PEPCK expression was measured by northern blot analysis. Hypothalamic RNA was analyzed using probes for prepro-NPY and β-actin. To assess the effect of ICV OA on the expression of hepatic enzymes, total RNA was isolated from freeze-clamped liver tissues from rats subjected to insulin clamp studies. Glc-6-Pase and PEPCK cDNA were obtained as previously described (Combs et al., 2001; Massillon et al., 1996; 1998). Probes were labeled with [α-^32P] dCTP using a random primer kit (Stratagene). Quantification was performed by scanning densitometry, normalizing for β-actin signal and 18S ribosomal RNA to correct for loading variabilities."}, "[1]": {"test_system": "male Sprague-Dawley (S-D) rats", "experiment": "Feeding behavior after ICV oleic acid bolus", "format": "in vivo, rat", "details": "for decrease in food intake compared with pre-injection basal levels: SC animals", "description": "Animals and Experimental Design. Ten week-old male Sprague-Dawley (S-D) rats (Charles River Breeding Laboratories, Inc., Wilmington, Mass.) were housed in individual cages and subjected to a standard light dark cycle (0600-1800/1800-0600). At 14 days before the in vivo studies, all rats received implantations of ICV catheters by stereotaxic surgery as previously described (36). Rats were allowed to recover completely before initiation of all in vivo studies. Animals were fed a standard chow (SC, cat. no. 5001, Purina Mills Ltd, with 59% calories provided by carbohydrate, 28% by protein and 12% by fat, 3.3 kcal/g), a high sucrose (HS; animals were given free access to a 20% sucrose solution in addition to their standard chow diet), or a highly palatable high fat diet (HF, cat. no. 9389; Purina Mills Ltd., with 45% calories provided by carbohydrate, 22% by protein and 33% by fat, 5.32 kcal/g) which was designed by the supplementation of the SC diet with 10% lard. The lard contained 2% myristic acid, 24% palmitic acid, 13% stearic acid, 46% oleic acid, and 12% linoleic acid. The total composition of fats in the HF diet was 5.2% saturated, 6.2% monounsaturated, and 2.7% polyunsaturated fat by weight. The SC diet contained 1%, 1.5%, and 1.6% of saturated, monounsaturated, and polyunsaturated fats by weight, respectively. Five groups of animals ere included in the feeding and metabolic studies (described below) after three days on the following diet regimens (Table 2): 1) SC ad libitum (SC; ˜80 kcal/day); 2) HS ad libitum (HS; ˜95 kcal/day); 3) HF ad libitum (HF140; ˜140 kcal/day); 4) HF calorie restricted (HF55; ˜55 kcal/day); and 5) HF pair-fed to SC(HF80; ˜80 kcal/day). Central Delivery of OA. OA was complexed with the polymer hydroxypropyl-3-cyclodextrin (HPB, CTD Inc). […] OA was solubilized in 45% HPB to a final concentration of 17 mM. The HPB-OA solution was diluted in artificial cerebral spinal fluid (aCSF) to the appropriate concentration used for each ICV injections (30 or 300 nmol/5 μl). HPB alone at a similar concentration as in the OA studies was used in all vehicle control studies. Feeding Behavior Studies. This experimental protocol was designed to examine the acute effect of ICV OA on food intake in three experimental groups fed a standard chow (SC), a high sucrose diet (HS95) and a high fat diet (HF140). SC and HF140 animals were allowed to eat their diets ad libitum. HS animals were given free access to a 20% sucrose solution in addition to the standard chow diet for three days. Following three days of ad libitum feeding in all groups, on study day 0 (FIG. 5a), rats were given an ICV bolus injection of either […] of OA (30 nmol) or vehicle at a rate of 1 μl/min using a gas-tight syringe (Hamilton Corp) one hour before the start of the dark cycle. Food intake was measured at the same time daily for three days post-injection."}}}
{"smiles": "CCCCCCCC/C=C\\CCCCCCCC(=O)O", "note": "[OA, oleic acid]", "values": [{"measurement": "decrease in hypothalamic NPY mRNA compared with ICV vehicle", "setting": "rats", "result": "~50", "unit": "%"}, {"measurement": "suppression of hypothalamic NPY mRNA expression", "setting": "hypothalamic NPY mRNA; 55-kcal/d group, overnight fast", "result": "~60", "unit": "%"}, {"measurement": "decrease in hypothalamic NPY mRNA", "setting": "hypothalamic NPY mRNA; three days of voluntary overfeeding (HF140), fasted", "result": 28, "unit": "%"}, {"measurement": "decrease in daily food intake", "setting": "[1]; HF140, ICV OA 30 nmol, first day", "result": 11, "unit": "%"}, {"measurement": "decrease in daily food intake", "setting": "[1]; HF140, ICV OA 30 nmol, second day", "result": "−2", "unit": "%"}, {"measurement": "decrease in daily food intake", "setting": "[1]; HS95, ICV OA 30 nmol, first day", "result": 21, "unit": "%"}, {"measurement": "decrease in daily food intake", "setting": "[1]; HS95, ICV OA 30 nmol, second day", "result": 17, "unit": "%"}, {"measurement": "decrease in food intake compared with pre-injection basal levels", "setting": "[1]; ICV OA 30 nmol, first day", "result": 48, "unit": "%"}, {"measurement": "decrease in food intake compared with pre-injection basal levels", "setting": "[1]; ICV OA 30 nmol, second day", "result": 52, "unit": "%"}, {"measurement": "return to baseline food intake after the OA injection", "setting": "[1]; all groups (SC, HS95, HF140)", "result": 3, "unit": "days"}, {"measurement": "effect on feeding behavior", "setting": "[1]; high fat chow", "result": "failed to significantly alter feeding behavior"}, {"measurement": "effect on feeding behavior", "setting": "[1]; high sucrose chow", "result": "failed to significantly alter feeding behavior"}, {"measurement": "duration of anorexia", "setting": "[1]; standard chow, ICV OA 30 nmol", "result": 48, "unit": "h"}, {"measurement": "decrease in food intake", "setting": "[1]; standard chow, for 2 days", "result": "~50", "unit": "%"}]}
